Laboratory results as given in ChEMBL document CHEMBL6087448, “Eradication of Therapy-Resistant Cancer Stem Cells by Novel Telmisartan Derivatives” (J Med Chem, 2025).
≈ marks a conversion by molar mass, not a printed value. Calls of active or inactive are those of the source. The calls are words filed in the database; no cut-off is given here.

Columns and labels:
A2780/Taxol [1] = assay: Cytotoxicity against human Paclitaxel-resistant A2780 cells assessed as metabolic activity at 10 nM measured after 72 hrs by MTT assay relative to control; assay type: functional
PBMC [2] = assay: Inhibition of colony formation in human PBMC derived from TKI naive CML patients assessed as reduction in number of colonies at 1 uM incubated for 14 days in presence of imatinib by inverted microscopic analysis; assay type: functional, cell-based; details: time 14.0 day
A549 [3] = assay: Inhibition of side population phenotype in human A549 cells expressing ABCC1 at 10 uM incubated for 90 mins by DCV staining based flow cytometric analysis; assay type: functional, cell-based
[4] = tested on: Paclitaxel-resistant IGROV-1 cell; assay: Inhibition of STAT5 phosphorylation in human Paclitaxel-resistant IGROV-1 cells expressing ABCB1 at 10 uM incubated for 72 hrs by Western blotting based immunoassay
[5] = tested on: Docetaxel-resistant DU145 cell; assay: Inhibition of side population phenotype in human Docetaxel-resistant DU145 cell expressing ABCB1 at 10 uM incubated for 90 mins by DCV staining based flow cytometric analysis; assay type: functional
K-562R [6] = assay: Inhibition of side population phenotype in human K562-r cells at 0.1 to 10 uM incubated for 90 mins by DCV staining based flow cytometric analysis; assay type: functional, cell-based; details: dose 0.1-10 µM
[7] = tested on: Docetaxel-resistant PC-3 cell; assay: Inhibition of side population phenotype in human Docetaxel-resistant PC-3 cell expressing ABCB1 at 10 uM incubated for 90 mins by DCV staining based flow cytometric analysis; assay type: functional
K-562R [8] = assay: Cytotoxicity against human K562-r cells assessed as reduction in metabolic activity at 10 uM incubated for 72 hrs by MTT assay; assay type: functional, cell-based
[9] = Apparent permeability across apical to basolateral side in human Caco-2 cells at 10 uM by LC-MS/MS analysis
[10] = tested on: Paclitaxel-resistant IGROV-1 cell; assay: Inhibition of side population phenotype in human Paclitaxel-resistant IGROV-1 cells expressing ABCB1 at 10 uM incubated for 90 mins by DCV staining based flow cytometric analysis; assay type: functional
[11] = (§1) Inhibition of side population phenotype in human K562-r cells at 10 uM incubated for 90 mins by DCV staining based flow cytometric analysis relative to control; assay type: functional; details: K-562R
K-562R [12] = assay: Effect on ABCB1 protein expression in human K562-r cells at 4 uM incubated for 72 hrs by Western blotting based immunoassay; assay type: functional, cell-based
[13] = tested on: Docetaxel-resistant DU145 cell; assay: Enhancement of docetaxel-induced anti-metabolic activity against human Docetaxel-resistant DU145 cell assessed as reduction in metabolic activity at 10 uM measured after 72 hrs by MTT assay; assay type: functional, cell-based
K562-r [14] = assay: Effect on STAT5 phosphorylation in human K562-r cells at 4 uM measured after 6 hrs by Western blotting based immunoassay; assay type: cell-based
[15] = Apparent permeability across basolateral to apical side in human Caco-2 cells at 10 uM by LC-MS/MS analysis
MCF7 [16] = assay: Inhibition of STAT5 phosphorylation in human MCF7 cells at 10 uM incubated for 72 hrs by Western blotting based immunoassay; assay type: cell-based
A2780/Taxol [17] = assay: Effect on STAT5 protein expression in human Paclitaxel-resistant A2780 cells expressing ABCB1 at 10 uM incubated for 72 hrs by Western blotting based immunoassay; assay type: functional, cell-based
A2780/Taxol [18] = assay: Inhibition of side population phenotype in human Paclitaxel-resistant A2780 cells expressing ABCB1 at 10 uM incubated for 90 mins by DCV staining based flow cytometric analysis; assay type: functional, cell-based
[19] = tested on: Docetaxel-resistant PC-3 cell; assay: Enhancement of docetaxel-induced anti-metabolic activity against human Docetaxel-resistant PC-3 cell assessed as reduction in metabolic activity at 10 uM measured after 72 hrs by MTT assay; assay type: functional, cell-based
K562-r [20] = assay: Inhibition of STAT5 phosphorylation in human K562-r cells at 4 uM measured after 6 hrs in presence of imatinib by Western blotting based immunoassay; assay type: cell-based
PBMC [21] = assay: Effect on colony formation in human PBMC derived from healthy donors at 10 uM measured after 2 weeks by inverted microscopic analysis; assay type: functional, cell-based
PBMC [22] = assay: Effect on colony formation in human PBMC derived from healthy donors at 10 uM measured after 2 weeks in presence of imatinib by inverted microscopic analysis; assay type: functional, cell-based
K-562R [23] = assay: Restoration of imatinib accumulation in human K562-r cells at 10 uM preincubated with compound for 1 hrs followed by imatinib addition and measured after 2 hrs by UHPLC-SIM-MS analysis; assay type: functional, cell-based; details: time 3.0 hrs
A549 [24] = assay: Effect on STAT5 protein expression in human A549 cells at 10 uM incubated for 72 hrs by Western blotting based immunoassay; assay type: functional, cell-based
K562-r [25] = assay: Inhibition of STAT5 phosphorylation in human K562-r cells at 4 uM measured after 72 hrs by Western blotting based immunoassay; assay type: cell-based
MCF7 [26] = assay: Effect on STAT5 protein expression in human MCF7 cells at 10 uM incubated for 72 hrs by Western blotting based immunoassay; assay type: functional, cell-based
A2780/Taxol [27] = assay: Sensitization of paclitaxel-induced cytotoxicity against human Paclitaxel-resistant A2780 cells assessed as reduction in metabolic activity at 10 uM measured after 72 hrs by MTT assay; assay type: functional, cell-based
[28] = tested on: Paclitaxel-resistant IGROV-1 cell; assay: Enhancement of paclitaxel-induced anti-metabolic activity in human Paclitaxel-resistant IGROV-1 cells assessed as reduction in metabolic activity upto 300 nM measured after 72 hrs by MTT assay; assay type: functional, cell-based
MCF7 [29] = assay: Inhibition of side population phenotype in human MCF7 cells expressing ABCG2 at 10 uM incubated for 90 mins by DCV staining based flow cytometric analysis; assay type: functional, cell-based
COS-7 = assay: Cytotoxicity against African green monkey COS-7 cells assessed as reduction in metabolic activity at 10 uM incubated for 72 hrs by MTT assay; assay type: toxicity, cell-based; details: chlorocebus aethiops, cos-7, 72 h
[30] = tested on: Paclitaxel-resistant A2780; assay: Inhibition of STAT5 phosphorylation in human Paclitaxel-resistant A2780 cells expressing ABCB1 at 10 uM incubated for 72 hrs by Western blotting based immunoassay; assay type: cell-based
A549 [31] = assay: Inhibition of STAT5 phosphorylation in human A549 cells at 10 uM incubated for 72 hrs by Western blotting based immunoassay; assay type: cell-based
[32] = Aqueous solubility of compound measured after 48 hrs by HPLC analysis; assay type: physicochemical; details: buffer
K-562R [33] = assay: Sensitization of imatinib-induced cytotoxicity against human K562-r cells assessed as reduction in metabolic activity at 0.5 to 10 uM measured after 72 hrs by MTT assay; assay type: functional, cell-based; details: dose 0.5-10 µM
K-562R [34] = assay: Sensitization of imatinib-induced cytotoxicity against human K562-r cells assessed as cell viability at 10 uM measured after 72 hrs by MTT assay relative to control; assay type: functional; details: read-out: Activity
[35] = Intrinsic clearance in rat hepatocytes measured per 10^6 cells; assay type: ADME, cell-based, Hepatocyte; details: read-out: CLH
K-562R [36] = assay: as §1; assay type: functional
K-562R [37] = assay: Enhancement of imatinib-induced anti-metabolic activity in human K562-r cells at 0.5 to 8 uM measured after 72 hrs by MTT assay relative to control; assay type: functional; details: dose 0.5-8 µM
[38] = tested on: Paclitaxel-resistant IGROV-1 cell; assay: Downregulation of STAT5 protein expression in human Paclitaxel-resistant IGROV-1 cells expressing ABCB1 at 10 uM incubated for 72 hrs by Western blotting based immunoassay; assay type: functional
[39] = Permeability of compound; assay type: ADME; details: not told; read-out: permeability
K-562R [40] = assay: Antitumor activity against human K562-r cells xenografted in female NOD/SCID mouse model assessed as tumor growth inhibition at 50 mg/kg, po administered once daily for 30 days; assay type: functional, organism-based; details: time 30.0 day
[41] = Toxicity in female NOD/SCID mouse xenografted with human K562-r cells assessed as body weight loss at 50 mg/kg, po administered once daily for 30 days; assay type: organism-based; details: in vivo, 720 h, time 30 day
[42] = Cytotoxicity against human Docetaxel-resistant DU145 cell assessed as metabolic activity at 12.5 nM measured after 72 hrs by MTT assay relative to control; assay type: functional
[43] = Toxicity in female NOD/SCID mouse xenografted with human K562-r cells assessed as body weight loss at 10 mg/kg, po co-administered with imatinib once daily for 30 days; assay type: organism-based; details: in vivo, 720 h, time 30 day
K-562R [44] = assay: Antitumor activity against human K562-r cells xenografted in female NOD/SCID mouse model assessed as reduction in tumor volume at 10 mg/kg, po co-administered with imatinib once daily and measured after 15 to 26 days; assay type: functional, organism-based; details: time 15-26 day
K-562R [45] = assay: Antitumor activity against human K562-r cells xenografted in female NOD/SCID mouse model assessed as reduction in tumor volume by measuring treatment to control ratio at 10 mg/kg, po co-administered with imatinib once daily and measured after 33 days relative to control; assay type: functional; details: time 33 day
K-562R [46] = assay: Antitumor activity against human K562-r cells xenografted in female NOD/SCID mouse model assessed as tumor growth inhibition at 10 mg/kg, po administered once daily for 30 days; assay type: functional, organism-based; details: time 30.0 day
[47] = Toxicity in female NOD/SCID mouse xenografted with human K562-r cells assessed as body weight loss at 10 mg/kg, po administered once daily for 30 days; assay type: organism-based; details: in vivo, 720 h, time 30 day
K-562R [48] = assay: Antitumor activity against human K562-r cells xenografted in female NOD/SCID mouse model assessed as tumor growth inhibition at 10 mg/kg, po co-administered with imatinib once daily for 30 days; assay type: functional, organism-based; details: time 30.0 day

SMILES	inhibition (PBMC [2])	inhibition (A549 [3])	inhibition [4]	inhibition [5]	Activity (K-562R [8])	inhibition [10]	Activity (K-562R [12])	Activity [13]	Activity (K562-r [14])	inhibition (MCF7 [16])	Activity (A2780/Taxol [17])	inhibition (A2780/Taxol [18])	Activity [19]	inhibition (K562-r [20])	Activity (PBMC [21])	Activity (PBMC [22])	Activity (A549 [24])	inhibition (K562-r [25])	Activity (MCF7 [26])	Activity (A2780/Taxol [27])	other results
CC(=O)O[C@H]1C(=O)[C@@]2(C)[C@H]([C@H](OC(=O)c3ccccc3)[C@]3(O)C[C@H](OC(=O)[C@H](O)[C@@H](NC(=O)c4ccccc4)c4ccccc4)C(C)=C1C3(C)C)[C@]1(OC(C)=O)CO[C@@H]1C[C@@H]2O [PACLITAXEL]																					Activity (A2780/Taxol [1]): >80%
CCCc1nc2c(C)cc(-c3nc4ccccc4n3C)cc2n1Cc1ccc(-c2ccccc2C(=O)OC)cc1	Active	Active	inactive	Active	inactive	Active	inactive	Active	inactive	Active	inactive	Active	Active; Marginal Activity Observed	Active	inactive	inactive	inactive	Active; Lesser Effect Observed	inactive	Active	inhibition (K-562R [6]): Active; Similar To Valspodar; inhibition [7]: Active; Papp A→B at 10 µM [9]: 0.1 ×10⁻⁶ cm/s; inhibition at 10 µM [11]: 100%; Papp B→A at 10 µM [15]: 0.2 ×10⁻⁶ cm/s; Activity (K-562R [23]): Active; Activity [28]: inactive; inhibition (MCF7 [29]): Active; Activity (COS-7): Non-toxic; inhibition [30]: Active; inhibition (A549 [31]): Active
CCCc1nc2c(C)cc(-c3nc4ccccc4n3C)cc2n1Cc1ccc(-c2ccccc2C(=O)O)cc1	inactive	Active	Active	Active; Modest Effect Observed	inactive	Active; Modest Effect Observed	inactive	inactive	inactive	Active	inactive	Active; Modest Effect Observed	Active; Marginal Activity Observed	Active	inactive	inactive	inactive	Active; Lesser Effect Observed	inactive	Active	solubility at 48 h [32]: 19.2 µM (≈ 9.88 µg/mL); Activity (K-562R [33]): Active; Marginal Enhancement Of Imatinib Activity Observed; viability at 10 µM (K-562R [34]): 34%; hepatocyte CLint [35]: 23 µL/min/1e6 cells; inhibition (K-562R [36]): inactive; Activity (K-562R [37]): <50%; Activity [28]: Active; Activity [38]: Active; inhibition (MCF7 [29]): Active; Activity (COS-7): Non-toxic; Papp [39]: 29 ×10⁻⁶ cm/s; inhibition [30]: Active; inhibition (A549 [31]): Active
Cc1ccc(NC(=O)c2ccc(CN3CCN(C)CC3)cc2)cc1Nc1nccc(-c2cccnc2)n1 [IMATINIB]																					Activity (K-562R [40]): Active; Activity [41]: Non-toxic
CC(=O)O[C@@]12CO[C@@H]1C[C@H](O)[C@@]1(C)C(=O)[C@H](O)C3=C(C)[C@@H](OC(=O)[C@H](O)[C@@H](NC(=O)OC(C)(C)C)c4ccccc4)C[C@@](O)([C@@H](OC(=O)c4ccccc4)[C@H]21)C3(C)C [DOCETAXEL ANHYDROUS]																					Activity [42]: >80%
CCCc1nc2c(C)cc(-c3nc4ccccc4n3C)cc2n1Cc1ccc(-c2ccccc2C(N)=O)cc1	Active	Active	Active	Active	inactive	Active	inactive	Active	inactive	Active	inactive	Active	Active	Active	inactive	inactive	inactive	Active; Lesser Effect Observed	inactive	Active	Activity [43]: Non-toxic; inhibition [7]: Active; Activity (K-562R [44]): Active; T/C (K-562R [45]): 36%; inhibition at 10 µM [11]: 100%; Activity (K-562R [46]): Active; Activity [47]: Non-toxic; Activity (K-562R [23]): Active; Activity (K-562R [48]): Active; Strongest Inhibition Observed; inhibition (MCF7 [29]): Active; Activity (COS-7): Non-toxic; inhibition [30]: Active; inhibition (A549 [31]): Active
